Results on two compounds are retold here after US6613351B1, “Compound capable of introducing at least one molecule into a cell” (Biotech Tools S.A., priority 1993, dated 2003).

The subject of one assay is CHO cells. Description: Transfection of adherent CHO cells with CAT plasmid, CAT assay. It counts as cell-based, Chinese Hamster. Particulars: for transfection efficiency of the CAT gene, percentage of acetylated chloramphenicol in the cellular extract: adherent cells (CHO), 3 h incubation, medium with serum. How it is done: (§1) 5 μg of plasmid DNA and 11 μg (11 μl) of pure diC14-amidine suspension (for 25 μg (25 μl) of diC14-amidine/PE suspension (see example 2)) are separately diluted in a final volume of 50 μl with distilled water and sterilized. Both solutions are then mixed and incubated for 15 min at room temperature.
The cells are cultured in 6-well culture dishes until they are 80-90% confluent.
The suspension containing the complex (diC14-amidine-DNA or diC14-amidine/PE-DNA) is gently mixed with 2 ml of culture medium. The culture medium used for the transfection operation is identical to the usual culture medium for the cells to be transformed. The medium is prepared with 2.5% or without serum.
The mixture thus formed constitutes the “transfection medium”. The cells (about 10^6) are washed with the culture medium and the transfection medium is added. The medium is incubated for the desired period. This period may depend on the cell line to be transfected but an incubation time of 2-3 h is generally used. After incubation, the transfection medium is replaced with fresh medium; 6 hours later, the cells can be […] into 100 mm culture dishes.
(§2) CHO (Chinese Hamster Ovary) cells are cultured in F12 medium supplemented with 1% glutamine and 1% penicillin/streptomycin and containing 10% FCS (Fetal Calf Serum, K562 (human myeloid) cells are cultured in RFMI medium supplemented with antibiotics and non-essential amino acids and containing 10% FCS (0.5-1×10^6 cells/ml). Both cell lines are cultured under a CO2 atmosphere (37° C., 5% CO2).
(§3) The plasmid used is derived from the commercial plasmid pCMV5 into which the bacterial replication origin S1, the ampicillin resistance gene and the CAT gene of bacterial origin have been inserted. It is approximately 5000 base pairs in size and is stored at a concentration of 1 mg/ml.
The general procedure described above was followed; 5 μg (5 μl) of plasmid DNA and 11 μg (11 μl) of pure diC14-amidine suspension (or 25 μg (25 μl) of diC14-amidine/PE suspension) prepared as described above are used. The CHO cells (adherent) are plated in the 6-well culture dishes the day before the experiment in an amount of 10^6 cells/well; while the K562 cells (in suspension) are used in an amount of 10^6 cells per experiment.
(§4) The incubation was carried out for 3 h for the two cell lines. The transfection medium is the normal culture medium (with serum) with which vesicle vector (pure diC14-amidine or diC14-amidine/PE/DNA) has been mixed under the conditions described in the general procedure.
After incubation, the cells are treated as described above; the CHO cells are transferred after 6 h into 100 mm culture dishes. The two cell lines continue to grow for 36 h before the CAT assay performed as described by Gorman et al., B.H. (1982), Mol. Cell. Biol. 2, 1044-1051; in brief, the cell lysates are incubated at 37° C. with [^14C]chloramphenicol and acetyl CoA for 2 h and extracted with ethyl acetate. The organic phase is eluted by TLC (thin-layer chromatography) with chloroform/methanol 95:5. The acetylation of chloramphenicol is determined by autoradiography on the chromatograms and counting of the spots on the plate.
(§5) Table 5 below gives the comparison of the transfection efficiency of the CAT gene for diC14 and the product DOTAP® marketed by Boehringer Mannheim, expressed as percentage of acetylated chloramphenicol in the cellular extract, under identical experimental conditions.

The next assay deals with K562 cells. Nature of the assay: Transfection of K562 suspension cells with CAT plasmid, CAT assay. It counts as cell-based, human. The conditions noted are these: 3 h incubation, medium with serum. The method, then:
as §1
The suspension containing the complex (diC14-amidine-DNA or diC14-amidine/PE-DNA) is gently mixed with 10 ml of medium. The mixture thus formed constitutes the “transfection medium”. Aliquots of 10^6 cells are centrifuged and the pellets are resuspended in the transfection medium. The cell suspensions are distributed into 100 mm culture dishes. The suspensions are incubated for the desired period; after incubation, the cells are centrifuged and resuspended in 10 ml of fresh medium and then cultured normally.
as §2, §3
[…] The CHO cells (adherent) are plated in the 6-well culture dishes the day before the experiment in an amount of 10^6 cells/well; while the K562 cells (in suspension) are used in an amount of 10^6 cells per experiment.
as §4
After incubation, the cells are treated as described above; the CHO cells are transferred after 6 h into 100 mm culture dishes. The two cell lines continue to grow for 36 h before the CAT assay performed as described by Gorman et al., B.H. (1982), Mol. Cell. Biol. 2, 1044-1051; in brief, the cell lysates are incubated at 37° C. with [^14C]chloramphenicol and acetyl CoA for 2 h and extracted with ethyl acetate. […] The acetylation of chloramphenicol is determined by autoradiography on the chromatograms and counting of the spots on the plate.
as §5

Where [1] appears, read: vector composition 2 + 5 (μg) plasmid DNA + cationic vesicles.
[2] abbreviates: vector composition 5 + 10 (μg) plasmid DNA + cationic vesicles.

The structures appear in SMILES notation.

With `CCCCCCCC/C=C\CCCCCCCC(=O)OCC(C[N+](C)(C)C)OC(=O)CCCCCCC/C=C\CCCCCCCC.COS(=O)(=O)[O-]` (stereo not drawn) [DOTAP, N-(2,3-dioleoyloxy)propyl-N,N,N-trimethylammonium methyl sulfate, reference compound], the “transfection efficiency of the CAT gene, percentage of acetylated chloramphenicol in the cellular extract” value with CHO cells (setting [1]) worked out at 32%; in the assay on CHO cells (setting [2]), 40%; with K562 cells (setting [1]) it was 29%; in the assay with K562 cells (setting [2]), 36%.
For `CCCCCCCCCCCCCCN=C(CCNCCCCCCCCCCCCCC)NC(C)(C)C` [diC14-t-but, 3-tetradecylamino-N-tert-butyl-N′-tetradecylpropionamidine], the “transfection efficiency of the CAT gene, percentage of acetylated chloramphenicol in the cellular extract” value in the assay with CHO cells (setting [1]) worked out at 63%; with CHO cells (setting [2]), 65%; in the assay with K562 cells (setting [1]), 60%; with K562 cells (setting [2]) it was 68%. Moreover, the “quantities needed for transfection efficiencies relative to available commercial products” value with CHO cells (compared with DOTAP (Boehringer Mannheim) and Lipofectin (Gibco BRL), CHO and K562 cells) is “two to three times lower”.
